≈ marks a conversion by molar mass, not a printed value.
Columns and labels:
E. coli DNA gyrase = target: T1, E. coli DNA gyrase (Escherichia coli, UniProt P0AES4+P0AES6); assay: DNA gyrase inhibition assay (supercoiling); assay type: biochemical; settings: E. coli DNA gyrase supercoiling, visual inspection of gels; read-out: DNA Gyrase IC50 (converted)
T1 construct: purchased John Innes Enterprises Ltd. (John Innes Centre, UK)
Procedure: Inhibition of the supercoiling activity of E. coli DNA gyrase was determined using enzymes, buffers and substrates received from John Innes Enterprises Ltd. (John Innes Centre, UK). The reactions were performed according to the manufacturer's directions, with the following modifications.
DNA supercoiling reactions were carried out in a total reaction volume of 20 μL containing 250 ng of relaxed pBR322, 35 mM Tris-HCl (pH 7.5), 24 mM KCl, 4 mM MgCl2, 2 mM dithiothreitol, 1.8 mM spermidine, 1 mM ATP, 6.5% glycerol and 100 μg/mL albumin. Compounds diluted in 10% DMSO were added to the reaction mixture to reach a final concentration of 0.5% DMSO. Enzyme was diluted to […] in a solution of 50 mM Tris-HCl (pH 7.5), 100 mM KCl, 2 mM dithiothreitol, 1 mM EDTA, and 50% glycerol. Diluted enzyme (0.2 unit) was added to each reaction.
The reactions were incubated at 37° C. for 30 min. The reactions were then cooled to 0° C., followed by addition of 3 μL of 40% glycerol, 100 mM Tris-HCl (pH 7.5), 50 mM EDTA, 0.5% SDS and 0.1% bromophenol blue. Samples were separated on 1.0% agarose gels. Gels were stained with Ethidium bromide and photographed with a Stratagene Eagle Eye II.

S. aureus ATCC13709 = assay: In vitro antibacterial activity (MIC assay), broth microdilution; assay type: cell-based; settings: Staphylococcus aureus, ATCC13709; read-out: S. aureus ATCC13709 MIC
Procedure: (§1) Minimal inhibitory concentration (MIC) has been an indicator of in vitro antibacterial activity widely used in the art. The in vitro antibacterial activity of the compounds was determined by the broth microdilution method described by the National Committee for Clinical Laboratory Standards (NCCLS) in the NCCLS Document M7-A5, Vol. 20, No. 2, “Methods for Dilution Antimicrobial Susceptibility Test for Bacteria that Grow Aerobically—Fifth Edition”, which is incorporated herein by reference.
(§2) In this method, an aliquot of test compound from an 11-point series of 2-fold serial dilutions of compounds in 100% DMSO was added to wells in microdilution plates. The test organisms were prepared by adjusting the turbidity of actively growing broth cultures so that the final concentration of test organism after addition to wells with or without compounds was approximately 5×10^5 CFU/mL.
(§3) Following inoculation of the microdilution plates, the plates were incubated at 35° C. for 16-24 h and then scored for bacterial growth. […] The amount of growth in the wells containing the test compound was compared with the amount of growth in the growth-control wells (no test compound used) in each plate, and with the amount of growth in the wells containing control compounds (such as ciprofloxacin). Compounds of the present invention were tested against several bacterial strains. The MIC values (in μg/mL) are presented in Table 1 for Gram-negative (E. coli KL-16 (GSC strain 4245); data marked as (*) was obtained with E. coli ATCC25922) and Gram-positive bacteria (S. aureus ATCC13709; S. pneumoniae ATCC49619).

S. pneumoniae ATCC49619 = assay: as above; assay type: cell-based; settings: Streptococcus pneumoniae, ATCC49619; read-out: S. pneumoniae ATCC49619 MIC
Procedure: as §1, §2, §3

[1] = system: E. coli KL-16 (GSC strain 4245); assay: as above; assay type: cell-based; settings: Escherichia coli
Procedure: as §1, §2, §3

T1 sequence (P0AES4 whole entry, one chain of several): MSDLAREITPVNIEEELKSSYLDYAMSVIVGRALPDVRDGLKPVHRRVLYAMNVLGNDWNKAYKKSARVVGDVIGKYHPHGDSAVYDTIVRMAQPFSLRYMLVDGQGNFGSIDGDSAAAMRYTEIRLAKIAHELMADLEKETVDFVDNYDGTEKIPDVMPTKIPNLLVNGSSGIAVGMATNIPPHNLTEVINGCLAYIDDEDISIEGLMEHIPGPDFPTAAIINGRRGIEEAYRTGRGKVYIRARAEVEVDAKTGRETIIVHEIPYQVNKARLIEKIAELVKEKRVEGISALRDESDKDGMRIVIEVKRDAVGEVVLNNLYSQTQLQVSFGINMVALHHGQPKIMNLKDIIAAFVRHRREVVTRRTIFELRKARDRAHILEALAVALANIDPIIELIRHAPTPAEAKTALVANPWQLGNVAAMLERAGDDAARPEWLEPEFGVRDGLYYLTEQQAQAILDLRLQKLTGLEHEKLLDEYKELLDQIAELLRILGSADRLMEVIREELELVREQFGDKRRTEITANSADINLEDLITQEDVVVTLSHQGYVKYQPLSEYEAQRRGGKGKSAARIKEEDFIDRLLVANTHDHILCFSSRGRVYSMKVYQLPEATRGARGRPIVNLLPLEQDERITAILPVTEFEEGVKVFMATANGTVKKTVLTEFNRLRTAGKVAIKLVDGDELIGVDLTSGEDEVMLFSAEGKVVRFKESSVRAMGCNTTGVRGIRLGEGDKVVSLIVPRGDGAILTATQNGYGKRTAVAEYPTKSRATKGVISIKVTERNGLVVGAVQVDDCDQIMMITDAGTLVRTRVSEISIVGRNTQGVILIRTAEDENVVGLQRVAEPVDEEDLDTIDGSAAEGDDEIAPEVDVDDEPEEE

Structure (SMILES) | IC50 (E. coli DNA gyrase) | MIC (S. aureus ATCC13709) | MIC (S. pneumoniae ATCC49619) | MIC [1]
COc1ccc2nccc(-n3cc4c(n3)CCC(NC(=O)C(=O)c3cc5ccccc5[nH]3)C4)c2n1 (stereo not shown) [Example 9, 2-(1H-Indol-2-yl)-N-[2-(6-methoxy-[1,5]naphthyridin-4-yl)-4,5,6,7-tetrahydro-2H-indazol-5-yl]-2-oxo-acetamide] | > 34.3 µM | 0.25 µg/mL (≈ 0.536 µM) | 4 µg/mL (≈ 8.57 µM) | > 128 µg/mL
COc1ccc2nccc(-n3cc4c(n3)CCC(NC(=O)/C=C/c3cccc([N+](=O)[O-])c3)C4)c2n1 (stereo not shown) [Example 14, N-[2-(6-Methoxy-[1,5]naphthyridin-4-yl)-4,5,6,7-tetrahydro-2H-indazol-5-yl]-3-(3-nitro-phenyl)-acrylamide] | 2.13 µM | 1 µg/mL (≈ 2.13 µM) | 16 µg/mL (≈ 34 µM) | > 128 µg/mL
COc1ccc2nccc(-n3cc4c(n3)CCC(NCC(=O)Nc3cc(F)cc(F)c3)C4)c2c1 (stereo not shown) [Example 61, N-(3,5-Difluoro-phenyl)-2-[2-(6-methoxy-quinolin-4-yl)-4,5,6,7-tetrahydro-2H-indazol-5-ylamino]-acetamide] | 4.32 µM | 0.5 µg/mL (≈ 1.08 µM) | 8 µg/mL (≈ 17.3 µM) | 16 µg/mL (≈ 34.5 µM)
COc1ccc2nccc(-n3cc4c(n3)CCC(NC(=O)c3cc5c(F)cc(F)cc5[nH]3)C4)c2n1 (stereo not shown) [Example 7, 4,6-Difluoro-1H-indole-2-carboxylic acid [2-(6-methoxyl-[1,5]naphthyridin-4-yl)-4,5,6,7-tetrahydro-2H-indazol-5-yl]-amide] | 4.22 µM | 0.25 µg/mL (≈ 0.527 µM) | > 128 µg/mL | > 128 µg/mL
COc1ccc2nccc(-n3cc4c(n3)CCC(NC(=O)c3cc5ccccc5[nH]3)C4)c2c1 (stereo not shown) [Example 21, 1H-Indole-2-carboxylic acid [2-(6-methoxy-quinolin-4-yl)-4,5,6,7-tetrahydro-2H-indazol-5-yl]-amide] | > 36.6 µM | 1 µg/mL (≈ 2.29 µM) | 8 µg/mL (≈ 18.3 µM) | > 128 µg/mL
COc1ccc2nccc(-n3cc4c(n3)CC(NC(=O)c3cc5c(cc3F)SCC(=O)N5)CC4)c2c1 (stereo not shown) [Example 28, 7-Fluoro-3-oxo-3,4-dihydro-2H-benzo[1,4]thiazine-6-carboxylic acid [2-(6-methoxy-quinolin-4-yl)-4,5,6,7-tetrahydro-2H-indazol-6-yl]-amide] | 3.97 µM | 0.25 µg/mL (≈ 0.496 µM) | 4 µg/mL (≈ 7.94 µM) | 16 µg/mL (≈ 31.8 µM)
COc1ccc2nccc(-n3cc4c(n3)CCC(NCc3ccc(N5CCCC5)cc3)C4)c2n1 (stereo not shown) [Example 87, [2-(6-Methoxy-[1,5]naphthyridin-4-yl)-4,5,6,7-tetrahydro-2H-indazol-5-yl]-(4-pyrrolidin-1-yl-benzyl)-amine] | 4.4 µM | 2 µg/mL (≈ 4.4 µM) | 8 µg/mL (≈ 17.6 µM) | 64 µg/mL (≈ 141 µM)
COc1ccc2nccc(-n3cc4c(n3)CCC(NC(=O)/C=C/c3ccc(F)cc3F)C4)c2n1 (stereo not shown) [Example 120, 3-(2,4-Difluoro-phenyl)-N-[2-(6-methoxy-[1,5]naphthyridin-4-yl)-4,5,6,7-tetrahydro-2H-indazol-5-yl]-acrylamide] | 4.33 µM | 0.125 µg/mL (≈ 0.271 µM) | 4 µg/mL (≈ 8.67 µM) | > 128 µg/mL
O=C1CSc2cc(F)c(C(=O)NC3CCc4nn(-c5cccc6ccccc56)cc4C3)cc2N1 (stereo not shown) [Example 33, 7-Fluoro-3-oxo-3,4-dihydro-2H-benzo[1,4]thiazine-6-carboxylic acid (2-naphthalen-1-yl-4,5,6,7-tetrahydro-2H-indazol-5-yl)-amide] | 4.23 µM | 1 µg/mL (≈ 2.12 µM) | 8 µg/mL (≈ 16.9 µM) | > 128 µg/mL
COc1ccc2nccc(-n3cc4c(n3)CCC(NC(=O)/C=C/c3ccc(F)cc3)C4)c2n1 (stereo not shown) [Example 13, 3-(4-Fluoro-phenyl)-N-[2-(6-methoxy-[1,5]naphthyridin-4-yl)-4,5,6,7-tetrahydro-2H-indazol-5-yl]-acrylamide] | > 36.1 µM | 0.5 µg/mL (≈ 1.13 µM) | 8 µg/mL (≈ 18 µM) | > 128 µg/mL
